Assays:
[1] = test system: isolated mitochondria from rat heart; assay: Mitochondrial respiration / oxidative phosphorylation (oxygraph); format: biochemical; details: AOL 5 to 80 μM
Description: Male Wistar rats (250-325 g; obtained from Janvier Labs, Le Genest-Saint-Isle, France) were killed by stunning and cervical dislocation, and the heart was quickly removed and washed in cold isolation medium containing 100 mM sucrose, 180 mM KCl, 50 mM Tris, 5 mM MgCl2, 10 mM EDTA, and 0.1% (w/v) deffated BSA (pH 7.2).
Isolation of heart mitochondria was performed in a cold chamber. Before homogenization, hearts (about 1.5 g) were minced with scissors and treated for 5 min in 5 mL of the same medium supplemented with protease (2 mg of bacterial proteinase type XXIV per mL of isolation buffer) with stirring. The tissue suspension was poured into a 50-ml glass Potter homogenizer, diluted with 20 mL of isolation buffer, then homogenized for 3 min using a motorized Teflon pestle. The homogenate was filtered through bolting cloth (Sefar Nitex) to remove debris, and centrifuged at 8,000 g for 10 minutes. The resulting pellet was rinsed with 5 mL of isolation buffer, resuspended in 25 mL of the same buffer, then subjected to low speed centrifugation (400 g) for 8 min. The resulting supernatant was centrifuged twice at 7,000 g for 15 min to yield a washed mitochondrial pellet that was gently resuspended in 150 μL of isolation buffer. Protein concentration was determined by the Bradford method (Sigma, kit # B6916) using BSA as standard. Mitochondria were kept on ice at a final concentration of 40-50 mg/mL for less than 5 h.
Oxygen consumption rates of heart mitochondria (0.1 mg/mL), incubated in the absence or presence of AOL at increasing doses (from 0 to 80 μM final concentration), were recorded polarographically under constant stirring at 25° C. using a high resolution oximeter (Oxygraph-2K, Oroboros Instruments, Austria). The respiration medium consisted in 140 mM sucrose, 100 mM KCl, 1 mM EGTA, 20 mM MgCl2, 10 mM KH2PO4, and 1 g/L (w/v) BSA essentially fatty acid free (pH 7.2).
This has been carried out by using the now classical oxygraph method. Mitochondria were first incubated with various AOL concentrations (5 to 80 μM) then respiratory substrate was added (substrate state, black curve), followed by a saturating ADP concentration to get the maximal oxidative phosphorylation rate (grey curve), and finally the addition of atractyloside (ATR) which inhibits the ADP/ATP translocator and gives the mitochondrial leak rate under non-phosphorylating conditions (FIG. 1A). The other panels of FIG. 1B-D presents the results obtained with different respiratory substrate combinations: glutamate+malate which feed electrons to complex I, succinate (+rotenone) for complex II and glutamate+malate+succinate to feed electrons to both complexes. […]

NAD(P)H oxidase = NAD(P)H oxidase ROS/H2O2 production control test without mitochondria; format: biochemical; details: no mitochondria; NAD(P)H oxidase + NADH; results not shown
[2] = test system: diet-induced obese (DIO) mice; assay: Chronic ip treatment of diet-induced obese mice on high-fat diet; format: in vivo, mouse; details: for AUC of blood glucose during insulin tolerance test (ITT): vehicle 12812.50±750.35
Description: The aim of the study was to determine whether the compound AOL, administered daily at the doses of 5 mg/kg and 10 mg/kg for up to five weeks by intraperitoneal (ip) daily administration in diet-induced obese (DIO) mice fed with a high-fat diet (HFD), modifies food intake, body weight, adiposity and glucose metabolism.
Mice were fed ad libitum with a HFD (60% of calories from fat, mostly lard) for twelve weeks before the pharmacological study begun. Animals received AOL or its vehicle by intraperitoneal (ip) administration and were maintained on HFD for the length of the study. Food intake and body weight were measured daily and recorded for up to three consecutive weeks.
Thirty 7-weeks-old male C57/B16J mice arrived to the laboratory on 25 Feb. 2016 and underwent a first in vivo body composition analysis (Echo MRI 900, EchoMRI Systems) after 1 week of adaptation to the experimental housing room. After this first MRI analysis, animals were fed a high-fat diet (HFD) ad libitum for a period of twelve weeks. Thereafter, they underwent a second MRI analysis and were distributed into 3 experimental groups of equivalent body weight and body composition.
Once the pharmacological treatment started (day 1), food intake (FI) and body weight (BW) were measured daily before the dark phase in animals housed in their home cage. Spillage of food was checked daily. The food consumed was calculated by subtracting the food left in the hoppers from the initial pre-weighted amount. FI and BW were measured for three consecutive weeks. Afterwards animals underwent a third MRI analysis in order to observe potential effects of the treatment onto the body composition (changes in fat and lean mass), followed by a glucose tolerance test (GTT) and an insulin tolerance test (ITT). Mice received daily ip administration of AOL or its vehicle for a total length of five weeks, until they were sacrificed.
A nuclear echo magnetic resonance imaging whole-body composition analyzer (Echo MRI 900; EchoMedical Systems) was used to repeatedly assess body fat and lean mass in conscious mice.
Animals were injected ip with 1.5 g/kg of D-Glucose (Sigma-Aldrich) for the GTT or with 0.5 U/kg of insulin (Humulin, Lilly, France) for the ITT. For the GTT and the ITT, animals were fasted overnight. The tests were conducted the following morning. Blood samples were taken from the tail vein at different time points (0, 15, 30, 60, 90 and 120 minutes after the ip administration of glucose or insulin) and glucose concentration was measured using glucose sticks (OneTouch Vita, Lifescan France, Issy les Moulineaux, France).
At sacrifice, blood samples were collected, blood glucose was rapidly assessed using glucose sticks and blood samples were then centrifuged at 3000 rpm for 15 minutes. The obtained plasma was stored at −80° C. for subsequent measurement of insulin, which was carried out by performing an ELISA (kit from Mercodia, Uppsala, Sweden), according to the manufacturer's instructions.

With `COc1ccc(-c2cc(=S)ss2)cc1` [AOL, 5-(4-methoxyphenyl)-3H-1,2-dithiole-3-thione] the “mitochondrial oxidative phosphorylation and inner membrane integrity (leak rate, after ATR addition)” value [1] was “absence of effect”, the “mitochondrial respiration under the different energetic states” value ([1]; glutamate and malate) was “no statistical differences” and the “mitochondrial respiration under the different energetic states” value ([1]; glutamate, malate and succinate) was “no statistical differences”. For the same compound, the “mitochondrial respiration under the different energetic states” value ([1]; succinate (+rotenone)) was “no statistical differences”, the “ROS/H2O2 production by NAD(P)H oxidase” value (NAD(P)H oxidase) was “does not inhibit” and the blood glucose levels ([2]; 2-hour fasted mice, after five weeks of treatment) was “tended to decrease”. For the same compound, the “body weight and % change of body weight” value ([2]; 5 and 10 mg/kg ip daily) was “did not have a significant effect”, the “AUC of blood glucose during insulin tolerance test (ITT)” value ([2]; AOL 5 mg/kg) was 15006.56±1139.69 and the “action of insulin on circulating glucose levels during an ITT” value ([2]; AOL 10 mg/kg) was “significantly blunted”. For the same compound, the “AUC of blood glucose during insulin tolerance test (ITT)” value ([2]; AOL 10 mg/kg, p=0.0107 vs vehicle) was 18168.33±1562.90, the lean mass ([2]; after three weeks, 5 and 10 mg/kg ip daily) was “did not have any effect” and the fat mass ([2]; after three weeks, 5 and 10 mg/kg ip daily, p=0.13) was “tended to reduce”. For the same compound, the “body weight and food intake” value ([2]; chronic daily administration, data not shown) was “tended to decrease”.

Source: US11318113B2, “Compounds for the treatment of diseases linked to mitochondrial reactive oxygen species (ROS) production” (OP2 DRUGS, priority 2015, dated 2022)
